Source: patent publication US11401271B2, “Fused heterocyclic compound, pyrazole-ring-containing fused heterocyclic compound, agricultural composition containing thereof, and method of using the composition” (SOUTH CHINA AGRICULTURAL UNIVERSITY, priority 2017, dated 2022)
Where a name gives a salt, the structure may show the parent alone. Read-outs that look alike come from different tables or passages of the source.

Columns and labels:
Assay in all cases: whole plant or invertebrate
Type in all cases: in vivo
[1] = tested on: Plutella xylostella; settings: for Plutella xylostella Mortality (%) / Plutella xylostella Mortality (%) 500 ppm: 500 ppm, 2nd-instar larvae, leaf immersion feeding
Protocol: (1) Insecticidal Activity on 2nd-Instar Larvae of Plutella xylostella.
Plutella xylostella (L.) is a lepidoptera pest with a chewing mouthpart and is a common vegetable pest. The 2nd-instar larvae of Plutella xylostella were used as test objects and tested by using a leaf immersion feeding method.
(§1) Operation process: Samples were weighed accurately, and respectively added with 200 μL of dimethyl sulfoxide to prepare 10 g/L mother liquor which was diluted into a concentration of 500 ppm with an aqueous solution containing 0.05% of Tween-80 during the test. A hole puncher with a diameter of 1.0 cm was used to make cleaned cabbage leaves into leaf discs. The leaf discs were immersed in a liquid medicine, taken out after 5 seconds, air-dried naturally, and transferred into a clean vessel. About 35 2nd-instar larvae of Plutella xylostella were put into the vessel and fed at a constant temperature of 28° C. Each concentration was repeated 3 times, and an aqueous solution containing 0.05% of Tween-80 was used as a control group. After being treated for 24 hours, a number of dead Plutella xylostella was counted, and a mortality (%) was calculated according to a formula that mortality (%)=(number of live larvae in the control group−number of treated live larvae)/number of live larvae in the control group*100%.

[2] = tested on: Aphis craccivora; settings: for Aphis craccivora Mortality (%) / Aphis craccivora Mortality (%) 500 ppm: 500 ppm, wingless adults; for Aphis craccivora Mortality (%): immersion 5 seconds, counted after 24 hours; for Aphis craccivora Mortality (%) 500 ppm: impregnation method, 24 hours
Protocol: (3) Insecticidal Activity on Aphid Adults.
Aphid is a homoptera pest with a piercing-sucking mouthpart and is a common vegetable pest. Aphis craccivora were taken as test objects and tested by using an impregnation method.
Operation process: Samples were weighed accurately, and respectively added with 200 μL of dimethyl sulfoxide to prepare 10 g/L mother liquor which was diluted into a concentration of 500 ppm with an aqueous solution containing 0.05% of Tween-80 during the test. After the wingless Aphis craccivora adults stably sucked on bean sprouts, the wingless Aphis craccivora adults together with the bean sprouts were immersed into a liquid medicine with a concentration of 500 ppm, taken out after 5 seconds, air-dried naturally, transferred into a clean vessel, and fed at a constant temperature of 23° C. Each concentration was repeated 3 times, and an aqueous solution containing 0.05% of Tween-80 was used as a control group. After being treated for 24 hours, a number of dead Aphis craccivora was counted, and a mortality (%) was calculated according to a formula that mortality (%)=(number of live Aphis craccivora in the control group−number of treated live Aphis craccivora)/number of live Aphis craccivora in the control group*100%.

[3] = tested on: Solenopsis invicta; settings: water test tube poison-feeding; for Solenopsis invicta Mortality (%) 24 h / Solenopsis invicta Mortality (%) 72 h / Solenopsis invicta Mortality (%) 100 ppm 24 h / Solenopsis invicta Mortality (%) 100 ppm 72 h: 100 ppm; for mortality at 100 ppm: Solenopsis invicta
Protocol: (4) Insecticidal Activity on Solenopsis invicta.
As a hymenoptera pests and a social insect, Solenopsis invicta is one of the most destructive invasive organisms. Solenopsis invicta were used as test objects and tested by using a water test tube poison-feeding method.
Operation process: Samples were weighed accurately, and respectively added with 200 μL of dimethyl sulfoxide to prepare 10 g/L mother liquor which was diluted into a concentration of 100 ppm with a mixed aqueous solution containing 0.05% of Tween-80 and 5% of honey during the test. […] The raising test tube was placed in a raising box horizontally, and a small amount of ham sausages were added to the raising test tube as food to raise the Solenopsis invicta at a constant temperature of 25° C. After being treated for 24 hours and 72 hours, a number of live Solenopsis invicta and a number of dead Solenopsis invicta were counted, and a mortality (%) was calculated according to a formula that mortality (%)=(number of live Solenopsis invicta in the control group−number of treated live Solenopsis invicta)/number of live Solenopsis invicta in the control group*100%.

[4] = tested on: Spodoptera exigua; settings: for Spodoptera exigua Mortality (%) / Spodoptera exigua Mortality (%) 500 ppm: 500 ppm, 2nd-instar larvae, leaf immersion feeding; for Spodoptera exigua Mortality (%) 500 ppm: 24 hours
Protocol: (2) Insecticidal Activity on 2nd-Instar Larvae of Spodoptera exigua.
Spodoptera exigua is a lepidoptera pest with a chewing mouthpart and is a common vegetable pest. The 2nd-instar larvae of Spodoptera exigua were used as test objects and tested by using a leaf immersion feeding method.
as §1, with “μL,” for “μL”, “2nd -instar” for “2nd-instar”, “Spodoptera exigua” for “Plutella xylostella”, “group −number” for “group−number”, “group * 100%.” for “group*100%.”

SMILES	Plutella xylostella Mortality (%) [1]	Aphis craccivora Mortality (%) [2]	Solenopsis invicta Mortality (%) 24 h ([3]; 24 h)	Solenopsis invicta Mortality (%) 72 h ([3]; 72 h)	Spodoptera exigua Mortality (%) [4]	further results
CC(=O)C1Nc2c([S+]([O-])C(F)(F)F)c(C(F)(F)F)nn2-c2c(Cl)cc(C(F)(F)F)cc21 (stereo not drawn) [d-112]	96%	100%	36%	99%	80%	–
CSc1nn2c(c1C(N)=O)NC(F)(C(F)(F)F)c1ccccc1-2 (centres unmarked) [Compound A28]	–	–	–	–	–	mortality at 500 ppm ([1]; Plutella xylostella, read-out: Plutella xylostella Mortality (%) 500 ppm): 100%; mortality at 500 ppm ([2]; Aphis craccivora, 24 h, read-out: Aphis craccivora Mortality (%) 500 ppm): 100%; mortality at 100 ppm ([3]; 24 h, read-out: Solenopsis invicta Mortality (%) 100 ppm 24 h, 100 ppm, 24 h): 29%; mortality at 100 ppm ([3]; 72 h, read-out: Solenopsis invicta Mortality (%) 100 ppm 72 h, 100 ppm, 72 h): 97%; mortality at 500 ppm ([4]; Spodoptera exigua, 24 h, read-out: Spodoptera exigua Mortality (%) 500 ppm): 90%
COC(=O)CC1(C(=O)C(F)(F)F)Nc2c([S+]([O-])C(F)(F)F)c(C#N)nn2-c2ncc(C(F)(F)F)cc21 (centres unmarked) [a-28]	–	–	–	–	–	Plutella xylostella Mortality (%) 500 ppm [1]: 100%; Aphis craccivora Mortality (%) 500 ppm [2]: 100%; Solenopsis invicta Mortality (%) 100 ppm 24 h ([3]; 24 h): 23%; Solenopsis invicta Mortality (%) 100 ppm 72 h ([3]; 72 h): 99%; Spodoptera exigua Mortality (%) 500 ppm [4]: 95%
COC(=O)CC1(C#N)Nc2c([S+]([O-])C(F)(F)F)c(C#N)nn2-c2ncc(C(F)(F)F)cc21 (centres unmarked) [a-56]	–	–	–	–	–	Plutella xylostella Mortality (%) 500 ppm [1]: 100%; Aphis craccivora Mortality (%) 500 ppm [2]: 100%; Solenopsis invicta Mortality (%) 100 ppm 24 h ([3]; 24 h): 16%; Solenopsis invicta Mortality (%) 100 ppm 72 h ([3]; 72 h): 93%; Spodoptera exigua Mortality (%) 500 ppm [4]: 90%
COC(=O)CC1Nc2c(OC(F)(F)F)c(C#N)nn2-c2cncc(Cl)c21 (centres unmarked) [b-111]	100%	100%	24%	100%	100%	–
N#Cc1nn2c(c1[S+]([O-])C(F)(F)F)NC(Cc1ccccc1)(C(=O)C(F)(F)F)c1cc(C(F)(F)F)cc(Cl)c1-2 (stereo not drawn) [d-52]	100%	100%	24%	100%	100%	–
COC(=O)CC1(C(=O)OC)Nc2c([S+]([O-])C(F)(F)F)c(C#N)nn2-c2cc(OC(F)(F)F)cc(Cl)c21 (centres unmarked) [c-224]	99%	100%	25%	100%	95%	–
COC(=O)CC1(C(=O)OC)Nc2c([S+]([O-])C(F)(F)F)c(C#N)nn2-c2cncc(Cl)c21 (centres unmarked) [b-1]	100%	100%	20%	97%	100%	–
COC(=O)C1Nc2c([S+]([O-])C(F)(F)F)c(C(F)(F)F)nn2-c2cncc(Cl)c21 (stereo not drawn) [b-87, 6-chloro-2-trifluoromethyl-3-trifluoromethylsulfinyl-4,5-dihydropyrazole[1,5-α]quinazoline[4,3-e]pyridine-5-methyl formate]	95%	100%	14%	100%	95%	–
COC(=O)CC1(C(=O)C(F)(F)F)Nc2c([S+]([O-])C(F)(F)F)c(C#N)nn2-c2c(Cl)cc(C(F)(F)F)cc21 (stereo not drawn) [d-54]	100%	100%	21%	99%	99%	–
